For one experiment, the system named is S180 sarcomas. In kind it is in vivo, Kunming mice.
Experiment [1] has as its system human gastric cancer cell line MKN. To be noted: mouse, in vivo.
Experiment [2] relates to human liver cancer cell line QGY. The conditions noted are these: mouse, in vivo.
A further experiment deals with mice colon carcinoma C26. The conditions noted are these: mouse, in vivo, 30 mg/kg.
For another experiment, the system named is Lewis lung carcinoma. To be noted: mouse, in vivo.

The structures appear in SMILES notation. Where “and” joins values, the source holds several entries; their conditions need not be identical. Equal entries are not always repeated. Where two headings read alike, the source gives them in different places. Marks after values point to notes of the source that are not given here.

The source of these data is patent US20070082075A1, “Traditional chinese medicine preparation for treatment of tumor and method of making and using same” (priority 2003, published 2007).

For the compound `O=P1(N(CCCl)CCCl)NCCCO1` (centres unmarked) [cyclophosphamide], the inhibition rate % is on record as 45.02*** % in the experiment on S180 sarcomas (15.0 mg/kg ip × 7) and 84.24*** % in the experiment with S180 sarcomas (30.0 mg/kg ip × 7). In addition, the “tumor weight (g) x ± SD” value in the experiment with S180 sarcomas (15.0 mg/kg ip × 7) stood at 1.71 ± 0.25 g; in the experiment on S180 sarcomas (30.0 mg/kg ip × 7) it was 0.49 ± 0.12 g. For the same compound, the inhibition ratio % is 88.11*** % and 89.06*** % in experiment [1]; 88.79*** % and 89.05*** % in experiment [2]; 91.02*** % and 79.12*** % in the experiment with mice colon carcinoma C26; 91.90*** % and 81.35*** % in the experiment with mice colon carcinoma C26 (ip); 88.32*** % and 88.49*** % in the experiment on Lewis lung carcinoma. For the same compound, the “tumor weight x ± SD” value is 0.17 ± 0.15 and 0.14 ± 0.05 in experiment [1]; 0.25 ± 0.14 and 0.22 ± 0.08 in experiment [2]; 0.22 ± 0.06 and 0.19 ± 0.06 in the experiment on mice colon carcinoma C26; 0.22 ± 0.06 and 0.18 ± 0.06 with mice colon carcinoma C26 (ip); 0.25 ± 0.07 and 0.29 ± 0.07 in the experiment with Lewis lung carcinoma.
